For data set [1] the following is noted: patients treated for obesity; cited from earlier work.
The conditions of data set [2]: cited from earlier work.
For data set [3], the system named is human skeletal muscle culture. Briefly: glucose uptake in human skeletal muscle culture. The settings on record: FIGS. 1 and 2, axis in pico Moles per milligram. It counts as cell-based. From the text: FIG. 2 graphs the effect of CP+CLA on glucose uptake in human skeletal muscle culture.
FIG. 3 illustrates the effect of CP+CLA on glucose uptake in human skeletal muscle culture.
Embodiments of the present invention include compositions which contain a conjugated fatty acid or conjugated fatty alcohol in combination with at least one chromium complex. Additionally, uses of the compositions disclosed herein to treat diabetes and/or obesity are provided. The co-administration of a conjugated fatty acid or conjugated fatty alcohol and at least one chromium complex provides a number of advantages over conventional pharmaceutical regimes for the treatment of diabetes and promotion of weight loss. One advantage of the compositions described herein over conventional treatment regimes for diabetes (such as injection of insulin) and weight loss is that compositions comprising a conjugated compound such as a conjugated fatty acid or conjugated fatty alcohol and at least one chromium complex have no known side effects while still providing efficacy in glucose uptake and weight loss. […] Those bars on FIGS. 1, 2, and 3 representing Chromium Picolinate (CP) and Conjugated Linoleic Acid (CLA) are measured in nanograms per milliliter.

For data set [4] the following is noted: growing animals; cited from earlier work.
The conditions of data set [5]: in vivo; cited from earlier work.
For data set [6] the following is noted: rats, oral CrCl3, co-administered NSAID; cited from earlier work.

For `CC(C)CC(N(C)C)C1(c2ccc(Cl)cc2)CCC1` (stereo not drawn) [Sibutramine], in data set [1], the side effects entry is on record as “increases blood pressure in a subset of patients”.
As for `CCCCCCCCCCC[C@@H](C[C@@H]1OC(=O)[C@H]1CCCCCC)OC(=O)[C@H](CC(C)C)NC=O` [orlistat], the side effects result in data set [1] was “may have unpleasant gastrointestinal side effects”.
On to conjugated linoleic acid [CLA], for which the “effect of CLA alone in obese subjects” value in data set [2] (added to standard diet and exercise) is “no effect”. For the same compound, the fat mass result in data set [2] (subgroup who did not follow diet and exercise well and gained lean body mass, placebo subjects had increase) is reported as “reduction in fat mass”. The glucose uptake entry in data set [3] (basal (without insulin)) and in data set [3] (stimulated (with insulin)) was “no effect” each time. Further, the “reduction of fat gain” value in data set [4] is recorded as 25%-70%.
As to chromium picolinate, the “weight loss and body composition” value in data set [5] was “modest weight loss and changes in body composition”.
On to `CC(=O)Oc1ccccc1C(=O)O` [aspirin, acetylsalicylic acid], for which the chromium absorption entry in data set [6] is “facilitated”.

The record behind these values is patent US6809115B2, “METHODS AND COMPOSITIONS FOR THE TREATMENT OF DIABETES, THE REDUCTION OF BODY FAT, IMPROVEMENT OF INSULIN SENSITIVITY, REDUCTION OF HYPERGLYCEMIA, AND REDUCTION OF HYPERCHOLESTEROLEMIA WITH CHROMIUM COMPLEXES, CONJUGATED FATTY ACIDS, AND/OR CONJUGATED FATTY ALCOHOLS” (Nutrition 21, Inc., priority 2000, dated 2004).
